Source: patent publication US9206236B2, “Peptides for treating cancer” (Gene Signal International SA, priority 2010, dated 2015)

Legend:
[1] = Body weight and toxicity of mice bearing NCI-H460 tumors (Example 3); assay type: in vivo
Method: All experiments were reviewed by the Genopole's institutional animal care and use committee and were performed in accordance with institutional guidelines for animal care. Female BALB/c nu/nu mice (n=30) were used at 5-6 weeks of age. The animals were housed in laminar air-flow cabinets under pathogen-free conditions with a 12 h light/12 h dark schedule, and fed autoclaved standard chow and water ad libitum. […] Tumor cells (10^7 cells in 200 μl of HBSS) were injected subcutaneously into the right flanks of mice. […] At tumor volume about 150 mm^3, animals were randomized, and separated into five groups of five animals. Control mice (group 1) were intraperitoneally injected with vehicle (10% DMSO in buffer saline) every day. GS-0 was dissolved in vehicle and intraperitoneally injected (group 2) every day (12 injections). GS-2 was dissolved in vehicle and intraperitoneally injected (group 3) every day (12 injections). Tumor volume and body weight were measured every other day over the treatment period (12 days).

NCI-H460 tumors = assay: NCI-H460 tumor xenograft in nude mice, tumor volume (Example 2); assay type: in vivo
Method: H460 cell line has cytology compatible with human Non-Small Cell Lung Cancer (NSCL). Cells were grown in MEM medium containing 10% FCS at 37° C., 5% CO2 humidified atmosphere. The absence of mycoplasms was confirmed by using the PCR Mycoplasma Detection kit (Takara). All experiments were reviewed by the Genopole's institutional animal care and use committee and were performed in accordance with institutional guidelines for animal care. Female BALB/c nu/nu mice (n=30) were used at 5-6 weeks of age. The animals were housed in laminar air-flow cabinets under pathogen-free conditions with a 12 h light/12 h dark schedule, and fed autoclaved standard chow and water ad libitum. The NCI-H460 human NSCL cell line was obtained from American Type Culture Collection (ATCC) and cells were grown in RPMI medium 1640 supplemented with 1 μM sodium pyruvate. Tumor cells (10^7 cells in 200 μl of HBSS) were injected subcutaneously into the right flanks of mice. After engraftment, tumor volume was measured by Vernier callipers, and calculated as described in Balsari A et al. (Balsari A et al. (2004) Eur J Cancer 40: 1275-1281). At tumor volume about 150 mm3, animals were randomized, and separated into five groups of five animals. Control mice (group 1) were intraperitoneally injected with vehicle (10% DMSO in buffer saline) every day. GS-0 was dissolved in vehicle and intraperitoneally injected (group 2) every day (12 injections). GS-1 was dissolved in vehicle and intraperitoneally injected (group 3) every day (12 injections). Tumor volume and body weight were measured every other day over the treatment period (12 days). GS-1 as well as the control peptide GS-0 were solubilized in DMSO and the resulting solutions were diluted 10 times with phosphate buffer saline (PBS) to obtain a concentration of 1 mg of peptide/ml of 10% DMSO in PBS. At this concentration, all peptides were soluble in 10% DMSO.

[2] = system: human microvascular endothelial cells (HMEC); assay: In vitro angiogenesis assay (Matrigel tube formation); assay type: cell-based; settings: 500 μg/ml final concentration of peptide, images at 18 h
Method: Angiogenesis of human microvascular endothelial cells (HMEC) was induced in vitro using a Matrigel assay described by Al-Mahmood et al (2009, JPET, 2009; 58:933). This method is based on the differentiation of endothelial cells to form capillary structures on a Matrigel Matrix. Matrigel is prepared the Engelbreth-Holm-Swarm (EHS) mouse tumor, which represents a complex mixture of basement membrane proteins including type IV collagen, entactin, proteo-heparan sulfate and other growth factors.
Briefly, 250 μl of Matrigel were transferred to each well of a 24-well culture plate and incubated at 37° C. for 30 min to allow for the matrix solution to solidify. HMEC grown in complete growth medium EGM-2MV were harvested by trypsin, suspended in the same growth medium and 500 μl containing 70 000 cells were added on top of the solidified Matrigel in each well and in the presence or absence of peptide. Cells were maintained in a humidified atmosphere air containing 5% CO2 at 37° C. for 18-24 hrs. Endothelial tube formation was observed and photographed under an inverted light microscope.
The designed tyrosine phosphorylated and non phosphorylated peptides were tested for their influence onto the in vitro angiogenesis. The results of the in vitro angiogenesis assay were presented in FIG. 1, using HMEC and 500 μg/ml final concentration of each peptide.

[3] = biological target: T1, recruitment of the regulatory subunit (p85) of the enzyme PI-3K by IRS-1 (Homo sapiens, UniProt P27986); assay: Recruitment of p85 of PI-3K by IRS-1 (IRS-1 immunoprecipitation, anti-p85 immunoblot) in HMEC; assay type: cell-based; settings: final concentration of peptide 500 μg/ml
T1 construct: endogenous in cells; host or cells: human microvascular endothelial cells (HMEC)
Method: Human EC grown in EGM-2MV (80% confluence) were incubated with the peptides of the invention or vehicle for the indicated time, washed three times in cold PBS and directly lysed in 2 ml of ice-cold lysis buffer (10 mM Tris pH 7.5, 150 mM NaCl, 1 mM PMSF, 0.5 μg/ml leupeptin, 1 μg/ml pepstatin A, and 1 μg/ml aprotinin) by incubation for 30 min at 4° C. Cell lysate were spun at […] for 10 min, insoluble materials were discarded, and protein contents measured by Bradford assay of supernatants were adjusted. Cell lysate (1 ml) was precleared with 25 μl of protein G-plus agarose beads (Santa Cruz) for 30 min, and proteins were then immunoprecipitated by adding 2 μg of the indicated antibody and incubated for 1 hr. The immunocomplex was pulled down with protein G-plus agarose beads and the beads were washed three times with lysis buffer. The immunoprecipitates were separated by NuPAGE® 4-12% Bis-Tris gel electrophoresis under reducing conditions, transferred to PVDF membrane (Novex System, Invitrogen), and the membrane was blocked with 5% (w/v) non-fat milk in TBS containing 0.1% v/v Tween-20 for 1 hr.
As it is widely admitted that the tyrosine phosphorylation of IRS-1 leads to its association with the regulatory subunit (p85) of the enzyme PI-3K, and this event lead to important increases in the enzymatic activity of this later, we have investigated the influence of the tyrosine phosphorylated and non phosphorylated peptides onto the recruitment of the regulatory subunit (p85) of the enzyme PI-3K by IRS-1. For that, human microvascular endothelial cells (HMEC) were incubated with the tyrosine phosphorylated and non phosphorylated peptides (final concentration of peptide 500 μg/ml) followed by cells lysis and immuoprecipitation of the protein IRS-1. The immunoprecipitates were then resolved in SDS-PAGE, proteins were transferred to membranes, and the membranes were immunoblotted with an anti-p85 PI3K monoclonal antibody.

T1 sequence (P27986 whole entry): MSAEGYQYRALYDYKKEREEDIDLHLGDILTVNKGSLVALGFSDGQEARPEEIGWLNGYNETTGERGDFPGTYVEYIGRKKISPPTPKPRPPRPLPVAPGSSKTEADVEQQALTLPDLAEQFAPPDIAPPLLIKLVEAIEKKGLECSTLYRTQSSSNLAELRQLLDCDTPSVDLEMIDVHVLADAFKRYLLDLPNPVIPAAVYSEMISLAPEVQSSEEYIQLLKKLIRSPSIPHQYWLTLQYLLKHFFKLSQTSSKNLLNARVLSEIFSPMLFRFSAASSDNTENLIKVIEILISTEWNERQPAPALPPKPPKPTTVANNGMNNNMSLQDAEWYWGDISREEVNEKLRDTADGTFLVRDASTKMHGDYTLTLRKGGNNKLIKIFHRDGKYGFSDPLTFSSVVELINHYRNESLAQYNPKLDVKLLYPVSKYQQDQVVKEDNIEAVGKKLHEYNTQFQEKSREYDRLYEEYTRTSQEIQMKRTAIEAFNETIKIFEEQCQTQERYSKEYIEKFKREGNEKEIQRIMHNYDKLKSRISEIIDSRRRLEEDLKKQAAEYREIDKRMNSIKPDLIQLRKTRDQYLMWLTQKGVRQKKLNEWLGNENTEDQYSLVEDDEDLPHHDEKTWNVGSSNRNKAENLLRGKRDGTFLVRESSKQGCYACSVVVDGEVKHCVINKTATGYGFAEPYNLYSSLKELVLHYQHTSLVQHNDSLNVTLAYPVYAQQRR

Ac-NYICMG-NH2 [GS-0, NYICMG, reference compound]
toxicity and body weight loss during treatment ([1]; 8 mg/kg intraperitoneally every day, 12 injections): No toxicity and no body weight loss | Mean body weight D1 ([1]; Table 3, 8 mg/kg i.p. daily, day 1, in g): 20.91 | Mean body weight D3 ([1]; Table 3, 8 mg/kg i.p. daily, day 3, in g): 21.37 | Mean body weight D5 ([1]; Table 3, 8 mg/kg i.p. daily, day 5, in g): 21.65 | Mean body weight D7 ([1]; Table 3, 8 mg/kg i.p. daily, day 7, in g): 21.81 | Mean body weight D9 ([1]; Table 3, 8 mg/kg i.p. daily, day 9, in g): 22.52 | Mean body weight D11 ([1]; Table 3, 8 mg/kg i.p. daily, day 11, in g): 22.76 | Mean body weight D13 ([1]; Table 3, 8 mg/kg i.p. daily, day 13, in g): 22.36 | influence on the in vivo growth of the tumor NCI-H460 (in words) (NCI-H460 tumors; 8 mg/kg i.p. daily for 12 days): no significant influence | mean tumor volume at the end of treatment (NCI-H460 tumors; 8 mg/kg i.p. daily for 12 days, n=5): 1114.83 ± 534.50 mm^3 | Mean tumor volume D1 (NCI-H460 tumors; Table 2, 8 mg/kg i.p. daily, day 1): 123 mm³ | Mean tumor volume D3 (NCI-H460 tumors; Table 2, 8 mg/kg i.p. daily, day 3): 233 mm³ | Mean tumor volume D5 (NCI-H460 tumors; Table 2, 8 mg/kg i.p. daily, day 5): 335 mm³ | Mean tumor volume D7 (NCI-H460 tumors; Table 2, 8 mg/kg i.p. daily, day 7): 402 mm³ | Mean tumor volume D9 (NCI-H460 tumors; Table 2, 8 mg/kg i.p. daily, day 9): 553 mm³ | Mean tumor volume D11 (NCI-H460 tumors; Table 2, 8 mg/kg i.p. daily, day 11): 751 mm³ | Mean tumor volume D13 (NCI-H460 tumors; Table 2, 8 mg/kg i.p. daily, day 13): 1110 mm³ | in vitro angiogenesis-inhibitory activity [2]: have not and/or negligible in vitro angiogenesis-inhibitory activity | influence onto the recruitment of the regulatory subunit (p85) of PI3K by IRS-1 [3]: no and/or negligible influence
